Laboratory results published in ChEMBL document CHEMBL1138629, “Synthesis of 61-bis(1-adamantylcarbamoyl)-1,2-methano[60]fullerene and its antagonistic effect on haloperidol-induced catalepsy in mice” (Bioorg Med Chem Lett, 2004).

Biological target: T1, Fatty-acid amide hydrolase 1 (Mus musculus, UniProt O08914)
T1 sequence (O08914 whole entry): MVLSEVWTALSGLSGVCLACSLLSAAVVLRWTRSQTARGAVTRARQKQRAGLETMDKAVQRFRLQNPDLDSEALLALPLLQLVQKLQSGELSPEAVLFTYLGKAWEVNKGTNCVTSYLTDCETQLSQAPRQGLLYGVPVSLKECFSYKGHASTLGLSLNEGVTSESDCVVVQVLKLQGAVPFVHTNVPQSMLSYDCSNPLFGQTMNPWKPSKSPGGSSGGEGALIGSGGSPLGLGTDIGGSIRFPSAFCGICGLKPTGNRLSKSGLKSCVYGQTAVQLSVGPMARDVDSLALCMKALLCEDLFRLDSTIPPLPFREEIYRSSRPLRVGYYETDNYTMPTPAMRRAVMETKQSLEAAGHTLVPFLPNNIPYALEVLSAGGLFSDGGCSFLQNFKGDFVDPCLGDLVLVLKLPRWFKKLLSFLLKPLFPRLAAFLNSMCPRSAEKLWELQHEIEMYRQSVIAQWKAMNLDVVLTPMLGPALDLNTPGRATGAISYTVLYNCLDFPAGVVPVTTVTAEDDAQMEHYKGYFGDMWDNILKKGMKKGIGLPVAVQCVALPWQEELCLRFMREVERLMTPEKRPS
Experiment: Inhibitory concentration against mouse fatty acid amide hydrolase
Type: functional

For `NC(=O)CCC/C=C\C/C=C\C/C=C\C/C=C\CCCCCC12CC3CC(CC(C3)C1)C2`, the IC50 was 37.4 µM.
